# Where two headings read alike, the source gives them in different places.
# What was measured:
# [1] = Safety assessment (TEAEs), pantoprazole study; type: in vivo, human
# Protocol: Participants were confined to the study center on days 1 through 16. On day 1, participants received an oral dose of ripretinib 50 mg under fasting conditions (Figure 1C). On days 8 through 13, participants received pantoprazole 40 mg once daily. On day 14, participants received pantoprazole 40 mg once daily and ripretinib 50 mg simultaneously under fasting conditions.
# Relationship to study drug was assessed by the investigator.
# Safety data were summarized as n (%).
# [2] = Stability in human plasma (K2EDTA), bioanalytical validation; type: in vitro ADME; settings: with or without concomitant medications
# Protocol: Following the bioanalytical method validation guidance, the analytical method was validated to verify that the assay was a robust and reliable measurement of ripretinib and DP‐5439 in human plasma with dipotassium ethylenediaminetetraacetic acid (K2EDTA) as the anticoagulant. The linear range of method was 2.00–1000 ng/mL for both ripretinib and DP‐5439. The coefficient of variation (CV%) (precision) for intra‐ and interassay at each quality control (QC) level was ≤15.0% (≤20.0% at the LLOQ QC level: 2 ng/mL for both ripretinib and DP‐5439). The mean % Bias (accuracy) at each QC level was within ±15.0% (±20.0% at the LLOQ QC level) from its respective nominal concentration.
# [3] = Rifampin (strong CYP3A inducer) DDI study, plasma pharmacokinetics; type: in vivo, human; settings: for AUC(0-t) / AUC(0-inf) / Cmax / half-life / Tmax: both sexes, human, plasma; for AUC(0-t) / AUC(0-inf) / Cmax / half-life: po; for Tmax: read-out: tmax, median (min, max); for Time postdose that mean plasma concentration remained above the LLOQ: LLOQ 2.00 ng/mL
# Protocol: All studies were phase 1, fixed‐sequence, open‐label studies in healthy volunteers. One study consisted of two separate cohorts examining DDIs between ripretinib and itraconazole or pantoprazole, respectively; the rifampin study was conducted separately. Studies and cohorts were enrolled independently. Eligible participants were healthy male or female adults between 18 and 55 years of age with a body mass index (BMI) of ≥18.5 and ≤30 kg/m^2. Good health was confirmed by a physician and based on medical evaluation with no significant findings, including medical history, physical examination, laboratory tests, and 12‐lead electrocardiogram (ECG) at screening and day −1. Participants were required to abstain from alcohol, marijuana, grapefruit, Seville oranges, tangelo, star fruit, and grapefruit‐like products 14 days prior to and during the study. Participants with a positive breath test for Helicobacter pylori were excluded from the pantoprazole study.
# Participants were confined to the study center from days −1 through 22 for the collection of plasma PK samples and all study procedures. Participants received an oral dose of ripretinib 100 mg on day 1 under fasting conditions; a higher dose of ripretinib was used than in the itraconazole or pantoprazole study due to the potential for decreased ripretinib exposure when coadministered with a strong CYP3A inducer (Figure 1B). On day 8, participants received oral doses of rifampin 600 mg once daily 1 hour before a meal with a full glass of water for 14 consecutive days through day 21. On day 18, participants received a second dose of ripretinib 100 mg administered simultaneously with rifampin 600 mg under fasting conditions. Blood samples for PK analysis were collected at predose and 1, 2, 3, 4, 5, 8, 10, 12, 24, 36, 48, 72, and 96 hours after administration of ripretinib on days 1 and 18. Safety was assessed throughout the study period and with a follow‐up phone call on day 29 or 7 days after discontinuation in the case of early withdrawal.
# Ripretinib and its active metabolite DP‐5439 plasma concentrations were measured using a validated high‐performance liquid chromatography (HPLC) with tandem mass spectrometry (LC‐MS/MS) assay with a lower limit of quantification (LLOQ) of 2.00 ng/mL for both analytes. In this method, the analytes (ripretinib and DP‐5439) and the internal standards (ISs; DCC‐2618‐d5 and DP‐5439‐d5) were released from human plasma samples by protein precipitation. The supernatants were chromatographed using reversed‐phase HPLC with a Betasil® C8 analytical column with deionized water (0.1% formic acid) and 40/60 acetonitrile/acetone (0.1% formic acid) as the mobile phase. Mass spectrometric detection was performed on a triple quadrupole tandem mass spectrometer API 5000 or API 5500 (Applied Biosystems/MDS Sciex, Toronto, Canada) equipped with a turbo ion spray source operated in the positive ionization mode. The source parameters were collision energy 40 eV, collision gas 6 psi, Nebulizer Gas 1, Turbo IonSpray Gas 2, and curtain gas 35 psi. Quantification was obtained by using multiple reaction monitoring mode of the transitions of mass to charge ratio [m/z] 510.3 →417 for DCC‐2618 (ripretinib), m/z 496.2 →403 for DP‐5439, m/z 515.3 →417 for DCC‐2618‐d5, and m/z 501.2 →403 for DP‐5439‐d5.
# Plasma concentration–time data were analyzed using noncompartmental methods using Phoenix® WinNonlin® v7.0 (Certara USA Inc., Princeton, New Jersey). Derived PK parameters included area under the concentration–time curve from time 0 to time t (AUC0–t) and area under the concentration–time curve from 0 to infinity (AUC0–∞), maximum observed concentration (Cmax), time of maximum observed concentration (tmax), elimination half‐life (t1/2), apparent systemic clearance, and for DP‐5439, metabolite to parent ratio for AUC0–t, AUC0–∞, and Cmax. […]
# Solubility = type: physicochemical
# [4] = ripretinib 100 mg single oral dose + rifampin 600 mg QD, fasting, healthy participants (N = 21)
# [5] = ripretinib 100 mg single oral dose alone, fasting, healthy participants (rifampin study, N = 21)
# [6] = ripretinib 100 mg with rifampin 600 mg QD relative to ripretinib alone
# [7] = ripretinib 100 mg with rifampin 600 mg QD relative to ripretinib alone, listed as ripretinib
structure (smiles),measurement,setting,value
CCn1c(=O)c(-c2cc(NC(=O)Nc3ccccc3)c(F)cc2Br)cc2cnc(NC)cc21 [Ripretinib],Number of TEAEs attributed to study drug,"[1]; human, in vivo, 28 days",42
same,Participants with TEAEs attributed to study drug per the investigator,"[1]; human, in vivo, 28 days",19 (76%) n (%)
same,Total number of TEAEs,"[1]; human, in vivo, 28 days",63
same,Deaths and serious AEs,"[1]; pantoprazole study, N = 25",No deaths occurred and no participants experienced SAEs
same,Stability in human plasma at room temperature,[2]; 16 hours at room temperature under normal laboratory lighting,stable
same,"Stability in human plasma, freeze–thaw",[2]; four cycles of freeze (−20 and −70°C) and thaw (room temperature),stable
same,AUC(0-t),"[3]; 100 mg, ripretinib 100 mg single oral dose alone, fasting, healthy participants (rifampin study, N = 21), read-out: AUC0–t, arithmetic mean (SD)",6620 ng·h/mL
same,AUC(0-t),"[3]; 100 mg, ripretinib 100 mg single oral dose alone, fasting, healthy participants (rifampin study, N = 21), read-out: AUC0–t, geometric mean (CV%)",5720 ng·h/mL
same,AUC(0-inf),"[3]; 100 mg, ripretinib 100 mg single oral dose alone, fasting, healthy participants (rifampin study, N = 21), read-out: AUC0–∞, arithmetic mean (SD)",6220 ng·h/mL
same,AUC(0-inf),"[3]; 100 mg, ripretinib 100 mg single oral dose alone, fasting, healthy participants (rifampin study, N = 21), read-out: AUC0–∞, geometric mean (CV%)",5820 ng·h/mL
same,Cmax,"[3]; 100 mg, ripretinib 100 mg single oral dose alone, fasting, healthy participants (rifampin study, N = 21), read-out: Cmax, arithmetic mean (SD)",392 ng/mL
same,Cmax,"[3]; 100 mg, ripretinib 100 mg single oral dose alone, fasting, healthy participants (rifampin study, N = 21), read-out: Cmax, geometric mean (CV%)",363 ng/mL
same,half-life,"[3]; 100 mg, ripretinib 100 mg single oral dose alone, fasting, healthy participants (rifampin study, N = 21), read-out: t1/2, arithmetic mean (SD) (converted)",15 h
same,half-life,"[3]; 100 mg, ripretinib 100 mg single oral dose alone, fasting, healthy participants (rifampin study, N = 21), read-out: t1/2, geometric mean (CV%) (converted)",15 h
same,AUC(0-t),"[3]; ripretinib 100 mg single oral dose + rifampin 600 mg QD, fasting, healthy participants (N = 21), read-out: AUC0–t, arithmetic mean (SD)",2360 ng·h/mL
same,AUC(0-t),"[3]; ripretinib 100 mg single oral dose + rifampin 600 mg QD, fasting, healthy participants (N = 21), read-out: AUC0–t, geometric mean (CV%)",2230 ng·h/mL
same,AUC(0-inf),"[3]; ripretinib 100 mg single oral dose + rifampin 600 mg QD, fasting, healthy participants (N = 21), read-out: AUC0–∞, arithmetic mean (SD)",2400 ng·h/mL
same,AUC(0-inf),"[3]; ripretinib 100 mg single oral dose + rifampin 600 mg QD, fasting, healthy participants (N = 21), read-out: AUC0–∞, geometric mean (CV%)",2270 ng·h/mL
same,Cmax,"[3]; ripretinib 100 mg single oral dose + rifampin 600 mg QD, fasting, healthy participants (N = 21), read-out: Cmax, arithmetic mean (SD)",321 ng/mL
same,Cmax,"[3]; ripretinib 100 mg single oral dose + rifampin 600 mg QD, fasting, healthy participants (N = 21), read-out: Cmax, geometric mean (CV%)",299 ng/mL
same,half-life,"[3]; ripretinib 100 mg single oral dose + rifampin 600 mg QD, fasting, healthy participants (N = 21), read-out: t1/2, arithmetic mean (SD) (converted)",7 h
same,half-life,"[3]; ripretinib 100 mg single oral dose + rifampin 600 mg QD, fasting, healthy participants (N = 21), read-out: t1/2, geometric mean (CV%) (converted)",7 h
same,Tmax,[3]; [4],3 h
same,Tmax,[3]; [5],3 h
same,"Exposure when combined with rifampin, relative to ripretinib alone",[3]; ripretinib 100 mg + rifampin 600 mg QD,less than half
same,Time postdose that mean plasma concentration remained above the LLOQ,[3]; ripretinib 100 mg alone (rifampin study),up to 96 hours
same,"CL/F, arithmetic mean (SD)",[3]; [4],47 (16) L/h
same,"CL/F, geometric mean (CV%)",[3]; [4],44 (35) L/h
same,"t1/2, geometric mean (CV%)",[3]; [4],6 (46) h
same,"CL/F, arithmetic mean (SD)",[3]; [5],18 (7) L/h
same,"CL/F, geometric mean (CV%)",[3]; [5],17 (39) L/h
same,Geometric LS mean ratio of AUC0–t,[3]; [6],39%
same,Geometric LS mean ratio of AUC0–∞ (90% CI),[3]; [6],39 (35–44) %
same,Geometric LS mean ratio of Cmax (90% CI),[3]; [6],82 (72–94) %
same,Geometric LS mean ratio of AUC0–∞ (90% CI),[3]; [7],39%
same,Geometric LS mean ratio of Cmax (90% CI),[3]; [7],82%
same,Time postdose that mean plasma concentration remained above the LLOQ,[3]; ripretinib 100 mg with rifampin,approximately 36 hours
same,"Solubility, pH dependence",Solubility,reduced solubility at neutral pH

# — publication PMC9790248, “Effects of CYP3A Inhibition, CYP3A Induction, and Gastric Acid Reduction on the Pharmacokinetics of Ripretinib, a Switch Control KIT Tyrosine Kinase Inhibitor” (Clinical Pharmacology in Drug Development, 2022)
